Assay results from PMC4457826 (PLoS Pathogens, 2015).

Key:
FL-USP7 = assay: GST pull-down, USP7-FL; type: binding, human; details: GST fusions 250 μg + USP7 250 μg, 50 mM Tris pH 8.0, 100 mM NaCl, 5 mM DTT, 5% glycerol, overnight 4°C; Coomassie stained gel; Fig 1A/1C; symbols not defined
Method: The USP7 binding region is found within ICP0 residues 594–633 and mutagenesis studies have shown that K620 is essential for the interaction. In order to facilitate crystallization and structure determination, we set out to identify a shorter peptide that is capable of binding to USP7. To this end, a series of overlapping GST-ICP0 fusions (591–605, 595–609, 599–613, 603–617, 607–621, 611–625, 615–629, 619–633) were prepared (see Fig 1A for sequence details) and used in GST pull-down assays. […] Overall, our GST pull-down assays identified ICP0 residues between 619 and 629 as important mediators of USP7 binding in agreement with a previous study.
Next we determined which region of USP7-CTD interacted with the ICP0 615–629 peptide. FL-USP7, USP7-CTD as well as Ubl12, Ubl123, Ubl345 and Ubl45 (Fig 1B) were used as prey in GST pull-down assays using GST-ICP0 615–629. FL-USP7 and USP7-CTD were used as positive controls while GST alone and USP7-NTD were used as negative controls.
(§1) The ICP0, GMPS and UHRF1 WT and mutant peptides were cloned into pGEX-2TK and expressed in E. coli BL21(DE3). GST-ICP0 594–775 was obtained from Roger Everett. The GST-ICP0 or GST-GMPS or GST-UHRF1 or GST-ICP0 594–775 cell pellets from 500 ml of LB broth were re-suspended with PBS and lysed using sonication. The cleared lysates were applied to 500 μl of equilibrated glutathione-sepharose beads and incubated with rocking for 60 min at 4°C. Unbound proteins were removed by washing with PBS. Bound proteins were eluted with 50 mM Tris pH 8.0 and 100 mM NaCL containing 30 mM reduced glutathione. Equal amounts (250 μg) of the various USP7 proteins were incubated with 250 μg of the GST-ICP0 or GST-GMPS or GST-UHRF1 or GST-ICP0 594–775 peptides in 50 mM Tris pH 8.0, 100 mM NaCl, 5 mM DTT, 5% glycerol, 0.1 mM Benzamidine and 0.05 mM PMSF, applied to equilibrated glutathione-sepharose beads and incubated overnight with rocking at 4°C. After extensive washing, bound proteins were eluted with 50 mM Tris pH 8.0 and 100 mM NaCl containing 30 mM reduced glutathione.

USP7-CTD = molecular target: T1, USP7-CTD (Homo sapiens, UniProt Q93009); assay: GST pull-down, USP7-CTD; type: binding; details: GST fusions 250 μg + USP7-CTD 250 μg, 50 mM Tris pH 8.0, 100 mM NaCl, 5 mM DTT, 5% glycerol, overnight 4°C; Coomassie stained gel; Fig 1A/1D; symbols not defined
T1 construct: USP7-CTD (535–1102); His tag (inferred from nickel-NTA purification; vector p15TV-L); made in house; host or cells: E. coli BL21(DE3)mgk
T1 sequence (Q93009 535-1102): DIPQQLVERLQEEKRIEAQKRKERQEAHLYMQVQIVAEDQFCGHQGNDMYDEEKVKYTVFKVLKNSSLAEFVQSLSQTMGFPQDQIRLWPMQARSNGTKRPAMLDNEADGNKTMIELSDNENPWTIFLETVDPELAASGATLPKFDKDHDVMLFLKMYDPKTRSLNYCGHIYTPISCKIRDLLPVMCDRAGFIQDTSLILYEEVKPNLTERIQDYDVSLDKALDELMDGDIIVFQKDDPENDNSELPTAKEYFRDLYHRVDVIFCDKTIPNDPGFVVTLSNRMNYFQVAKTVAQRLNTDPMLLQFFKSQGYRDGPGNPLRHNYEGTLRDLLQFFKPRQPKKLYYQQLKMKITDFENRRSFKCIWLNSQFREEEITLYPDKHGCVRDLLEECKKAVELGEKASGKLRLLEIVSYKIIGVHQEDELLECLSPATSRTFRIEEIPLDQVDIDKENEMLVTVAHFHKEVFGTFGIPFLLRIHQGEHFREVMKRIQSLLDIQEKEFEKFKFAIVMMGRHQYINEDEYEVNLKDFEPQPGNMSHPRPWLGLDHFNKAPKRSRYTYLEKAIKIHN
Method: (§2) Fragments representing USP7-CTD Ubl domains were prepared using ligation independent cloning with In-Fusion (Clontech) in p15TV-L. The boundaries of the Ubl domain constructs are Ubl12 (535–776), Ubl123 (535–889), Ubl345 (776–1102), Ubl45 (886–1102) and USP7-CTD (535–1102). Plasmids expressing USP7-NTD, USP7, and myc-USP7 WT (pCANmycUSP7) were described previously. USP7 mutants E759A, D762A, D764A and D762A/D764A in Ubl123 were synthesized (Genscript) and inserted into the pET15b plasmid. USP7 mutants E759A, D762A, D764A, D762A/D764A and D762R/D764R in USP7-CTD were prepared by ACGT Corporation. The D762R/D764R mutant was then sub-cloned into wild-type pCANmycUSP7 for co-IP assays. The mammalian ICP0 expression construct pCI-110 ICP0 was obtained from Roger Everett.
as §1

USP7 Ubl123 = molecular target: T2, USP7 Ubl123 (Homo sapiens, UniProt Q93009); assay: GST pull-down, Ubl123; type: binding; details: mutations within ICP0 615–629, Fig 3D
T2 construct: Ubl123 (535–889); His tag (inferred from nickel-NTA purification; vector p15TV-L); made in house; host or cells: E. coli BL21(DE3)mgk
T2 sequence (Q93009 535-889): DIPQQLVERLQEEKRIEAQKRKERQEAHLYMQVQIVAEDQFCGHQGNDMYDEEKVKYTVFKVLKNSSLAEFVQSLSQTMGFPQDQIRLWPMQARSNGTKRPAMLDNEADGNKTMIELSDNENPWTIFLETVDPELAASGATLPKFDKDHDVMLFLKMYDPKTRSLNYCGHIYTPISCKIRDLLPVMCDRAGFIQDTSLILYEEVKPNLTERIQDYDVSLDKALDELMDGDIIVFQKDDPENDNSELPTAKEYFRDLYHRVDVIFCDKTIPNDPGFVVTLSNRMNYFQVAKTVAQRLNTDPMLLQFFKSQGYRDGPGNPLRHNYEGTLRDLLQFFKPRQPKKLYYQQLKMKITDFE
Method: as §2, §1

[1] = system: USP7-CTD mutant D762R/D764R; assay: GST pull-down, USP7-CTD D762R/D764R; type: binding, human
Method: as §2
The ICP0, GMPS and UHRF1 WT and mutant peptides were cloned into pGEX-2TK and expressed in E. coli BL21(DE3). GST-ICP0 594–775 was obtained from Roger Everett. The GST-ICP0 or GST-GMPS or GST-UHRF1 or GST-ICP0 594–775 cell pellets from 500 ml of LB broth were re-suspended with PBS and lysed using sonication. The cleared lysates were applied to 500 μl of equilibrated glutathione-sepharose beads and incubated with rocking for 60 min at 4°C. Unbound proteins were removed by washing with PBS. Bound proteins were eluted with 50 mM Tris pH 8.0 and 100 mM NaCL containing 30 mM reduced glutathione. […]

USP7-CTD mutant D762A = assay: GST pull-down, USP7-CTD D762A; type: binding, human
Method: as §2, §1

[2] = system: USP7-CTD mutant D762A/D764A; assay: GST pull-down, USP7-CTD D762A/D764A; type: binding, human
Method: as §2, §1

myc-tagged WT USP7 = assay: Co-immunoprecipitation with myc-tagged WT USP7 from 293T cells; type: cell-based, human; details: anti-myc IP, endogenous protein, Western blot, Fig 5B
Method: (§3) 293T cells were grown in Dulbecco’s modified Eagle’s medium (DMEM) (Gibco) with 10% fetal calf serum. 293T cells at 70% confluence in a 10-cm-diameter dish were transfected with 10 μg pCANmycUSP7 expressing WT USP7 or D762R/D764R (MRGR) USP7 or with pcDNA3.1 (negative control), in each case using 20 μl PolyJet (SignaGen Laboratories) transfection reagent. Cells were transferred to a 15-cm-diameter dish 24 h post-transfection and harvested 48 h post-transfection. For experiments on USP7-ICP0 interactions, 293T cells were co-transfected with 1 μg pCANmycUSP7 expressing WT or D762R/D764R (MRGR) USP7 and either 1 μg pCI-110 ICP0 or 1 μg pcDNA3.1. For controls lacking USP7, 1 μg pCI-110 ICP0 was co-transfected with 1 μg pcDNA3.1. In each case 4 μl PolyJet (SignaGen Laboratories) transfection reagent was used.
Protein samples were subjected to SDS-PAGE and transferred to nitrocellulose. […]
293T cells transfected as described above were washed in phosphate-buffered saline (PBS) and lysed on ice for 45 min in a 4x volume of RIPA buffer (50 mM Tris-HCl [pH 8], 150 mM NaCl, 0.1% sodium deoxycholate, 0.5% NP-40) with complete protease inhibitors (Sigma P8340), followed by centrifugation. […] Immunoprecipitated proteins were separated by SDS-PAGE and analyzed by Western blotting, as described above.

[3] = system: myc-tagged D762R/D764R (MRGR) USP7; assay: Co-immunoprecipitation with myc-tagged D762R/D764R (MRGR) USP7 from 293T cells; type: cell-based, human; details: anti-myc IP
Method: as §3
Protein samples were subjected to SDS-PAGE and transferred to nitrocellulose. Membranes were blocked in 5% skim milk in Tris-buffered saline with 1% Tween (TBS-T) and then incubated with antibodies against ICP0 (H1A027 from Virusys Corporation; 1:5000 dilution), myc (sc-40 from Santa Cruz Biotechnology; 1:5000 dilution), NP95/UHRF1 (A301-470A from Bethyl Laboratories; 1:1000 dilution), GMPS (rabbit serum raised against full-length GMPS [17]; 1:5000 dilution) and actin (MA5-15739 from Pierce; 1:20,000 dilution). After washing, blots were probed with goat anti-mouse or goat anti-rabbit peroxidase (Santa Cruz Biotechnology; 1:5000 dilution) and developed using chemiluminescence reagents (Santa Cruz biotechnology).
293T cells transfected as described above were washed in phosphate-buffered saline (PBS) and lysed on ice for 45 min in a 4x volume of RIPA buffer (50 mM Tris-HCl [pH 8], 150 mM NaCl, 0.1% sodium deoxycholate, 0.5% NP-40) with complete protease inhibitors (Sigma P8340), followed by centrifugation. 1 mg of each clarified lysate was incubated with 1 μg of anti-myc antibody for 1h, followed by incubation with 30 μl of A/G PLUS agarose resin (Santa Cruz Biotechnology) for 2 h at 4°C with end-over-end rotation. The resin was harvested by centrifugation, washed in RIPA buffer, and then boiled in SDS loading buffer. Immunoprecipitated proteins were separated by SDS-PAGE and analyzed by Western blotting, as described above.

RKCARKTRHAETSGA [ICP0 619–633, GST-ICP0 fusion of ICP0 residues 619–633]
Interaction with USP7-FL (overlapping GST-ICP0 peptides) (FL-USP7): strongest interaction
Interaction with USP7-CTD (overlapping GST-ICP0 peptides) (USP7-CTD): strongest interaction

RRKK
Binding of mutant GST-ICP0 peptides to Ubl123 (USP7 Ubl123): lacked detectable binding

TGKGKWKR [UHRF1 peptide, UHRF1 peptide with KxxxK motif, residues 642–649]
Binding to USP7-CTD mutant D762R/D764R [1]: disrupted
Binding to USP7-CTD mutant D762A (USP7-CTD mutant D762A): disrupted
Binding to USP7-CTD mutant D762A/D764A [2]: disrupted

UHRF1: endogenous epigenetic regulator UHRF1 in 293T cells, an E3 ligase
recovery with WT USP7 (co-IP) (myc-tagged WT USP7): efficiently recovered
binding relative to recovery with WT USP7 ([3]; D762R/D764R mutant, endogenous protein, multiple experiments, Fig 5B): 21% (± 6%)
recovery with D762R/D764R USP7 (co-IP), in words ([3]; Western blot, Fig 5): significantly decreased
